# Read-outs that look alike come from different tables or passages of the source.
# Assays:
# PCT cells = assay: LIVE/DEAD cell viability of kidney cells under anoxia; assay type: cell-based, murine
# Experimental: HT22 mouse hippocampal neuronal cells were cultured in Dulbecco's modified Eagle's medium (DMEM; Gibco) supplemented with 10% FBS (Gibco), 100U/ml streptomycin, 100U/ml penicillin at 37 °C in 5% CO2/95% air. Renal PCT cells were obtained from primary cultures of murine proximal tubule segments and cultured as previously described (Melis, N. et al. Targeting eIF5A Hypusination Prevents Anoxic Cell Death through Mitochondrial Silencing and Improves Kidney Transplant Outcome. J Am Soc Nephrol 28, 811-822, doi:10.1681/ASN.2016010012 (2017)). Hypoxic or anoxic conditions were created by maintaining cell cultures at 37°C in a sealed "Bug-Box" anaerobic workstation (Ruskin Technologies). Oxygen Glucose Deprivation (OGD) was induced on HT22 cells placing them in glucose-free Hepes balanced salt solution without glucose (HBSS: NaCl 116mM, KCl 5.4mM, CaCl2 1.8mM, MgSO4 0.8mM, NAH2PO4 1mM, NaHCO3 26.2mM,; pH 7.2-7.4) in an hypoxic chamber filled with 98.5% N2 and 1.5% CO2 at 37°C for 3h. Upon removal of the cultures from the chamber, the growth medium was changed back to normal medium.
# The Fluorescent LIVE/DEAD® Cell Viability/Cytotoxicity Assay Kit (Invitrogen, France) was used on PCT cells (24-well plates) according to the manufacturer's protocol. Fluorescent micrographs were recorded using an observer D1 microscope (Zeiss).
# 150,000 PCT cells were seeded in Petri dishes and transfected 24 h later with 50 nM serRS pooled siRNAs (Sigma MISSION®esiRNA targeting mouse serRS: EMU081851) using Lipofectamine™ 3000 transfection reagent (Invitrogen). Cells were exposed to various experimental procedures 24-48 h post-transfection, as described in the text.
# mice = assay: tMCAo stroke model, infarct volume (cresyl violet); assay type: in vivo; details: SerHX pretreatment, '15 mM serHX group'; 60 min tMCAo; 24 h post-reperfusion; Fig.3C
# Experimental: Male 7-week old C57BL/6J mice (Janvier France Breeding) were housed in a temperature- and humidity-controlled animal facility with a 12-h light-dark cycle. Food and water were available ad libitum. All animal care and use were performed with in accordance to the policies of European Community Directive 86/609/EEC. All efforts were made to minimize animal suffering and the number of animals used.
# tMCAO was performed 30 min after the final injection using a 6-0 coated filament (Doccol), as previously described (Bourourou, M., Heurteaux, C. & Blondeau, N. Alpha-linolenic acid given as enteral or parenteral nutritional intervention against sensorimotor and cognitive deficits in a mouse model of ischemic stroke. Neuropharmacology 108, 60-72, doi:10.1016/j.neuropharm.2016.04.040 (2016)). Control of tMCAo severity and reperfusion was evaluated monitoring the regional cerebral blood flow by laser-Doppler flowmetry. Infarct volume (mm^3) was mesured 24 h post-reperfusion on coronal frozen brain sections ([…]) stained by 1% cresyl violet in 0.25% acetic acid using a computer image analysis system.
# Animals were randomly assigned to vehicle or serHX groups prepared for 3 experimental protocols. Protocol 1: Vehicle and serHX were administrated intraperitoneally (416 mM, 150µl IP) 48, 24, 2h before a 60min tMCAo. […]
smiles,measurement,setting,value
C[C@@H]1C[C@@H]([C@H](O)CC2CC(=O)NC(=O)C2)C(=O)[C@@H](C)C1 [cycloheximide],living kidney cells,PCT cells,64%
same,renal cell survival after 24 h of anoxia (in words),PCT cells,increased renal cell survival
NC(CO)C(=O)NO (centres unmarked) [serine hydroxamate],reduction of infarct volumes compared with the vehicle group,mice,30%
same,living kidney cells,"PCT cells; anoxia 24 h, <0.1% O2, cells treated with the inhibitor beforehand, CHX 1 to 10 pg/ml, Fig.1A",95%
N[C@@H](CO)C(=O)O [serine],renal cell survival after 24 h of anoxia (in words),"PCT cells; anoxia 24 h, <0.1% O2, Fig.1A",no effect
